# According to patent US12221656B2, “Methods and materials for assessing homologous recombination deficiency” (Myriad Genetics, Inc., priority 2014, dated 2025):
# Tested on: triple negative breast cancer (TNBC)
# Test: Neoadjuvant cisplatin cohort, pathologic response in triple negative breast cancer
# Type: in vivo, human
# Details: for Pathologic complete response (pCR = yes), % response / Pathologic response (PR = yes), % response: secondary analysis, n=51
# Description: Analysis of a neoadjuvant TNBC cohort treated with cisplatin was examined relative to the relationship between all three HRD scores and response. All p values were from logistic regression models with response to cisplatin as the dependent variable.
# HR Deficiency status was determined for 62 of the 70 samples (70 individual patients) received from a cisplatin cohort (8 had insufficient tumors for analysis). Of these, 31 (50%) were HR deficient, 22 (35%) were non-HR deficient, and 9 (15%) were undetermined. FIG. 15 provides a histogram showing the distribution of HRD scores in the cohort. […] were considered to have high HRD (see also, Example 5). […] Pathologic complete response (pCR), which is associated with long-term survival, was defined as a residual cancer burden (RBC) of 0 and observed in 11/59 (19%) samples. […] These overall response rates correlated with monotherapy expectations.
# Statistical analyses followed a predefined Statistical Analysis Plan (SAP), which included primary, secondary, and BRCA wild-type subset analyses.
smiles,measurement,setting,value
N.N.[Cl][Pt][Cl] [cisplatin],"Pathologic complete response (pCR = yes), % response",BRCA Mutant,3 (33.3%)
same,"Pathologic response (PR = yes), % response",BRCA Mutant,5 (55.6%)
same,"Pathologic complete response (pCR = yes), % response",BRCA Non-mutant,5 (11.9%)
same,"Pathologic response (PR = yes), % response",BRCA Non-mutant,13 (31.0%)
same,"Pathologic complete response (pCR), residual cancer burden of 0","whole cisplatin cohort, 11/59 samples",19%
same,"Pathologic response (PR), residual cancer burden of 0 or 1","whole cisplatin cohort, 22/59 samples",37%
